BindingDB's records for doi:10.1016/j.ejmech.2020.112223 (2020)
pIC50: −log10 of the molar value.

Assay: Inhibition of Influenza A virus (A/PR 8/34 (H1N1)) hemagglutinin transfected in human HeLa cells assessed as reduction in low pH-indued polykaryon formation preincubated for 15 mins followed by pH 5.2 buffer addition and measured after 5 mins by giemsa staining based microscopic analysis

Work on `COC(=O)C[C@H](NC(=O)OC(C)(C)C)C(=O)N(Cc1ccc(F)cc1)C1(C(=O)NCc2ccccc2)CCN(Cc2ccccc2)CC1` yielded a pIC50 of 4.92.
